Read-outs that look alike come from different tables or passages of the source.
Legend:
[1] = test system: primary ovine chondrocytes; test: Metabolic activity assay (PrestoBlue); type: cell-based
Protocol: All cell work was undertaken on primary ovine chondrocytes. Cells were first expanded, then seeded into wells 24 hrs prior to the application of the fluid gels. Once treatments were added, the cells were cultured for a further 3 days before testing for both metabolic activity and cell viability. In the presence of functionalised particles, suspension wells were used to promote adhesion to the gelled particles, away from the plastic. Metabolic activity assay was undertaken using a PrestoBlue™ assay kit (Invitrogen). In brief, cells were washed with Dulbecco's PBS, and 1 mL of PrestoBlue™ supplemented medium (10%) was added to each well and incubated for 4 hrs. 50 μL of supernatant from each well was transferred to one well of a 96 well plate and fluorescence was measured using a Tecan Spark (Tecan Group Ltd, UK) plate reader with excitation/emission wavelengths set at 550/620 nm.

[2] = Release assay from PEG-DA fluid gel (trans-well, UV/Vis); type: physicochemical; conditions: 3% v/v PEG-DA fluid gel (Example 5.3, 500 rpm), into PBS at 37° C., 5 hrs
Protocol: • Active amounts: […] • Standard concentrations of active in PBS were prepared. • Standards were pipetted into a quartz cuvette (1 mm pathlength). • UV/Vis spectroscopy was used to measure absorbance between 200 and 700 nm wavelength. • Curves were plotted and used to determine standard curves which were used to determine concentrations. • 0.5 ml PBS was added to the well of a 24 well plate. • The PBS was incubated at 37° C. to equilibrate. • 0.1 ml of the fluid gel containing active was placed in a trans-well insert. • The trans-well insert was placed into a well containing PBS. • After a given time period the trans-well insert was removed and placed in a fresh well of PBS. • The release media was then removed and analysed using […] spectroscopy. Concentrations were derived from the standard curves and cumulative release plotted as a function of time.

Compound	release of active agent from fluid gel [2]	further results
CC(C)(O)C(=O)c1ccccc1 [Omnirad-1173, 2-hydroxy-2-methyl-1-phenylpropanone]	–	metabolic activity, each constituent part of the PEG-DA formulation ([1]; 3 days culture, PEG-DA not cured, 3.5% & 5%): slight reduction in cell metabolism, although not statistical
CC(C)Cc1ccc(C(C)C(=O)O)cc1 (stereo not shown) [Ibuprofen, ibuprofen]	able to release	–
dextran	able to release	–
CC(C)(O)C(=O)c1ccc(OCCO)cc1 [Irgacure-2959, 1-[4-(2-Hydroxyethoxy)-phenyl]-2-hydroxy-2-methyl-1-propane-1-one]	–	metabolic activity, each constituent part of the PEG-DA formulation [1]: slight reduction in cell metabolism, although not statistical

From US20230218519A1, “FLUID GEL COMPOSITIONS” (The University of Birmingham, priority 2020, published 2023)
